According to PMC9852121, “Targeted α-therapy using astatine (^211At)-labeled PSMA1, 5, and 6: a preclinical evaluation as a novel compound” (European Journal of Nuclear Medicine and Molecular Imaging, 2022):
Where two headings read alike, the source gives them in different places.

Legend:
[1] = parameters: method as in PMID 27789722, PMID 27889802; conditions: mice; cited from earlier work
[2] = parameters: method as in PMID 27789722, PMID 27889802; conditions: humans; cited from earlier work
[3] = test system: LNCaP xenograft; assay: Treatment effect in LNCaP xenograft mice (tumor size, body weight); format: in vivo, NOD/SCID mice; conditions: single administration 0.4 MBq, versus saline
Description: (§1) Non-obese diabetic/severe combined immunodeficiency (NOD/SCID) mice (5 weeks old, male) were purchased from Charles River Japan, Inc. (Atsugi, Japan). LNCaP cells were suspended in a 1:1 mixture of medium and Matrigel (Corning, USA), subcutaneously implanted into the unilateral flank of the mice (approximately 6–10 × 10^6 cells), and used approximately 5 weeks later (range, 4–8 weeks). Institute of Cancer Research (ICR) mice (6 weeks old, male) were purchased from Japan SLC, Inc. (Shizuoka, Japan) and used as a non-tumor-bearing cohort for the evaluation of biodistribution and histology.
LNCaP xenograft mice (body weight = 21.8 ± 5.98 g) were administered [^211At]PSMA5 (0.39 ± 0.03 MBq, 0.002 μg, n = 12), [^211At]PSMA1 (0.40 ± 0.07 MBq, 0.002 μg, n = 5), or saline (n = 10). […] Non-radiolabeled PSMA5 (high mass, 0.02 μg; low mass, 0.002 μg) and PSMA1 (high mass, 0.02 μg; low mass, 0.002 μg) were also administered to LNCaP xenograft mice (each n = 3) and compared with saline-injected mice (n = 3) to assess the absence of antitumor effect by the PSMA compound itself. […] The body weight (g) was also monitored.

[4] = test system: LNCaP cells (high expression of PSMA); assay: In vitro cellular uptake analysis (LNCaP versus PC-3 cells); format: cell-based, human; conditions: 30 min incubation, Fig. 2; for Cellular uptake, LNCaP cells compared with PC-3 cells: LNCaP high, PC-3 low PSMA expression
Description: Human prostate cancer cell lines, prostatic carcinoma-3 (PC-3) (low expression of PSMA), and lymph node carcinoma of the prostate (LNCaP) (high expression of PSMA) were obtained from the RIKEN Cell Bank (Tsukuba, Japan). Cells were maintained in a culture medium, Roswell Park Memorial Institute 1640 medium (FUJIFILM Wako Pure Chemical Corporation, Osaka, Japan), supplemented with 10% heat-inactivated fetal bovine serum (Gibco) and 1% penicillin-streptomycin (FUJIFILM Wako Pure Chemical). The medium for LNCaP was supplemented with 1% sodium pyruvate (FUJIFILM Wako Pure Chemical) in a culture medium. Cells were seeded in 24-well plates (5 × 10^4/well) and cultured for 2 days. After washing twice with phosphate-buffered saline (PBS) (−), the culture medium was changed to Hanks’ balanced salt solution (+). After treatment with [^211At]PSMA1 or [^211At]PSMA5 (approximately 30–50 kBq/well), cells were washed twice with PBS (–). After washing, all cells were lysed with 0.1 N sodium hydroxide, and the radioactivity of the cells was calculated using a 2480 Wizard^2 γ counter (Perkin Elmer, MA, USA). Protein levels were measured using a plate reader (MultiScan FC, Thermo Fisher) and the BCA Protein Assay Kit (FUJIFILM Wako Pure Chemical). Uptake (%uptake/mg protein) was compared between PC-3 and LNCaP cells at 30 min after incubation with [^211At]PSMA1 or [^211At]PSMA5.

[5] = test system: LNCaP xenograft; assay: Biodistribution in LNCaP xenograft model (NOD/SCID mice); format: in vivo; conditions: for Total excretion in the urine / Total excretion in the feces: Fig. 3 legend, mouse strain not given; for Tumor retention (uptake): about 0.11-0.12 MBq; for Kidney uptake, comparison [211At]PSMA5 versus [211At]PSMA6: 3 h post-injection, NOD/SCID mice
Description: as §1
(§2) High PSMA expression was already confirmed in LNCaP xenografts in our previous study. The brain, thyroid, salivary gland, lung, heart, liver, spleen, pancreas, stomach, small intestine, colon, kidney, bone, testis, blood, urine, feces, and tumor were excised and weighed to evaluate biodistribution after euthanasia at 3 and 24 h after administration. Urine excretion was determined from absorption to filter paper or by urine collection in the cage, and feces were collected from the cage. Radioactivity was measured using a 2480 Wizard^2 γ counter. The detection efficiency for ^211At with the γ counter was calibrated by measurement of the ^211At source whose radioactivity was determined with a Ge semiconductor detector (BE2020, Mirion Technologies (Canberra), Connecticut, USA). Uptake was calculated as the percentage of injected dose (%ID).

[6] = Urine analysis with urinalysis test strips (protein) in normal ICR mice; format: in vivo; conditions: for Urine test of protein: individual animals No. 1-3
[7] = test system: LNCaP xenograft; assay: Planar imaging with γ camera in LNCaP xenograft mice; format: in vivo, NOD/SCID mice; conditions: 3 and 24 h post-injection
Procedure: Planar imaging was performed using a γ camera system (E-cam, Siemens) at 3 and 24 h after administration, targeting the X-rays emitted from the daughter nuclide ^211Po (energy window: 79 keV ± 20%). Image analysis was performed by setting the regions of interest in the tumor and kidneys using AMIDE software (version 1.0.4).

[8] = In vivo deastatination / metabolites in blood and urine; parameters: species or system mice
[9] = Histopathological evaluation of organs in LNCaP xenograft mice; format: in vivo; conditions: LNCaP xenograft NOD/SCID mice, 3 and 6 weeks after 0.4 MBq
Procedure: (§3) The excised organs and tissues were fixed in a 10% neutral buffered formalin solution. After fixation, paraffin sections were prepared and stained with hematoxylin and eosin. Specimens were evaluated using an integrated microscope (BZ-X810; Keyence Corporation, Osaka, Japan). Histological evaluation was performed by a toxicopathology specialist with the support of KAC Co. Ltd. (Kyoto, Japan).

[10] = Plasma BUN and creatinine (renal function) in ICR mice; format: in vivo; conditions: 8 weeks after administration, Supplementary Fig. S2
Procedure: Plasma was obtained by centrifuging a portion of the blood sample collected at the time of euthanasia and was measured using a dry clinical chemistry analyzer (SPOTCHEM D-00 QR D-02; ARKRAY, Inc., Kyoto, Japan). Blood urea nitrogen (BUN) and creatinine (Cre) levels were also measured. Cre values less than 0.2 were considered 0.2 in the statistical analysis.

[11] = Histopathological evaluation of organs in normal ICR mice; format: in vivo; conditions: for Histopathology of kidney parenchyma, salivary gland, stomach, thyroid, spleen and small intestine: 8 weeks after 0.4 MBq
Procedure: as §3

[12] = Biodistribution in normal ICR mice; format: in vivo; conditions: 3 h post-injection
Description: as §1
as §2, with “The brain, thyroid, salivary gland, lung, heart, liver, spleen, pancreas, stomach, small intestine, colon, kidney, bone, testis, blood, urine, feces, and tumor were excised and weighed to evaluate biodistribution after euthanasia at 3 and 24 h after administration.” left out

[13] = parameters: method as in PMID 27230930; conditions: cited from earlier work

Structure (SMILES)	Total excretion in the urine ([5]; 3 h)	Tumor retention (uptake) ([5]; 3 h after administration)	Total excretion in the feces ([5]; 24 h)	Total excretion in the urine ([5]; 24 h)	Tumor retention (uptake) ([5]; 24 h after administration)	Urine test of protein ([6]; Day 21 after 0.4 MBq)	Urine test of protein ([6]; Day 38 after 0.4 MBq)	Histopathology of kidney parenchyma, salivary gland, stomach, thyroid, spleen and small intestine [11]	Kidney uptake, comparison [211At]PSMA5 versus [211At]PSMA6 [5]	Kidney uptake, comparison [211At]PSMA5 versus [211At]PSMA6 [12]	Changes in body weight [3]	Treatment effect on tumor growth (tumor size) [3]	Cellular uptake, LNCaP cells compared with PC-3 cells [4]	further results
O=C(O)CC[C@H](NC(=O)N[C@@H](CCCCNC(=O)[C@H](Cc1ccc2ccccc2c1)NC(=O)c1ccc(CNC(=O)[C@H](CCC(=O)O)NC(=O)[C@H](CCC(=O)O)NC(=O)c2ccc([18F])nc2)cc1)C(=O)O)C(=O)O [[^18F]PSMA-1007]	–	–	–	–	–	–	–	–	–	–	–	–	–	Urine excretion in PET [1]: high urine excretion; Urine excretion in PET [2]: minimal
O=C(O)CCC(NC(=O)NC(CCCCNC(=O)C(Cc1ccc2ccccc2c1)NC(=O)c1ccc(CNC(=O)C(CCC(=O)O)NC(=O)C(CCC(=O)O)NC(=O)Cc2ccc([211At])cc2)cc1)C(=O)O)C(=O)O (centres unmarked) [[^211At]PSMA5]	8.26 ± 5.00 %ID	30.6 ± 17.8 %ID/g	35.2 ± 9.2 %ID	15.33 ± 6.3 %ID	40.7 ± 2.6 %ID/g	30 (1+) mg/dl	30 (1+) mg/dl	no significant changes	similar	similar	No significant changes in body weight	excellent tumor growth suppression	more highly incorporated into LNCaP cells	Proteinuria ([6]; 8 weeks after administration): did not observe proteinuria; Urine test of protein ([6]; Day 10 after 0.4 MBq): 30 (1+) mg/dl; Urine test of protein ([6]; Day 14 after 0.4 MBq): 30 (1+) mg/dl; Uptake in the tumor xenografts and kidneys on planar images [7]: High uptake; Metabolites, including astatide ions, present in urine (deastatination) ([8]; 3 h after injection, mice): not more than 1.0 % of the injected doses; Radioactivity in the blood and urine from intact molecules ([8]; 3 h post injection): most of the radioactivity observed in the blood and urine was from intact molecules; Histopathology of salivary glands and stomach [9]: No significant changes; Histopathology of the kidneys [9]: regenerated tubules were observed in the cortical area in all NOD/SCID mice; BUN and Cre levels [10]: did not observe proteinuria or increased BUN and Cre levels; Cellular uptake, comparison between compounds [4]: higher uptake than [^211At]PSMA1; Mice with regenerated tubules in the cortical area of the kidney ([11]; 2 weeks after high dose 1 MBq): one out of four; Tumor uptake, comparison with [211At]PSMA6 ([5]; mouse, in vivo): higher tumor uptake than [^211At]PSMA6; Tumor-to-kidney uptake, comparison with [211At]PSMA6 ([5]; mouse, in vivo): better tumor-to-kidney uptake
O=C(O)CC[C@H](NC(=O)NC(CCCCNC(=O)c1ccc([211At])cc1)C(=O)O)C(=O)O (stereo partly drawn) [^211At-6, (2S)-2-(3-(1-carboxy-5-(4-211At-astatobenzamido)pentyl)ureido)-pentanedioic acid]	–	–	–	–	–	–	–	–	–	–	–	–	–	Kidney findings after treatment ([13]; 1.5 MBq): subcortical atrophy, and degenerative loss of proximal tubules; Proteinuria ([13]; animals treated with 1.5 MBq): developed proteinuria 1–2 months after treatment; Proteinuria ([13]; animals treated with 37 kBq): developed mild proteinuria that was later resolved

The next lines start with results.

Total excretion in the urine ([5]; 3 h)	Tumor retention (uptake) ([5]; 3 h after administration)	Total excretion in the feces ([5]; 24 h)	Total excretion in the urine ([5]; 24 h)	Tumor retention (uptake) ([5]; 24 h after administration)	Urine test of protein ([6]; Day 21 after 0.4 MBq)	Urine test of protein ([6]; Day 38 after 0.4 MBq)	Histopathology of kidney parenchyma, salivary gland, stomach, thyroid, spleen and small intestine [11]	Kidney uptake, comparison [211At]PSMA5 versus [211At]PSMA6 [5]	Kidney uptake, comparison [211At]PSMA5 versus [211At]PSMA6 [12]	Structure (SMILES)	Changes in body weight [3]	Treatment effect on tumor growth (tumor size) [3]	Cellular uptake, LNCaP cells compared with PC-3 cells [4]	further results
0.49 ± 0.37 %ID	12.4 ± 4.8 %ID/g	14.0 ± 4.8 %ID	14.7 ± 10.0 %ID	8.7 ± 3.5 %ID/g	–	–	–	–	–	O=C(O)CCC(NC(=O)NC(CCCCNC(=O)C(Cc1ccc2ccccc2c1)NC(=O)c1ccc(CNC(=O)CCC(=O)NCCCCC(NC(=O)CNC(=O)Cc2ccc([211At])cc2)C(=O)O)cc1)C(=O)O)C(=O)O (centres unmarked) [[^211At]PSMA1]	No significant changes in body weight	good treatment effect	more highly incorporated into LNCaP cells	Kidney excretion, comparison with [211At]PSMA5 and [211At]PSMA6 ([5]; mouse, in vivo): superior
–	19.1 ± 4.5 %ID/g	9.78 ± 0.79 %ID	6.20 ± 1.51 %ID	18.1 ± 2.2 %ID/g	30 (1+) mg/dl	30 (1+) mg/dl	no significant changes	similar	similar	O=C(O)CC[C@H](NC(=O)N[C@@H](CCCCNC(=O)[C@@H](Cc1ccc2ccccc2c1)NC(=O)c1ccc(CNC(=O)[C@H](CCC(=O)O)NC(=O)[C@H](CCC(=O)O)NC(=O)Cc2ccc([211At])cc2)cc1)C(=O)O)C(=O)O [[^211At]PSMA6]	–	–	–	Urine test of protein ([6]; Day 24 after 0.4 MBq): 100 (2+) mg/dl; Urine test of protein ([6]; Day 31 after 0.4 MBq): 30 (1+) mg/dl; Urine test of protein ([6]; Day 45 after 0.4 MBq): 30 (1+) mg/dl; Retention in the kidney, comparison with [211At]PSMA5 ([5]; 24 h post-injection): higher retention in the kidney
